The test system of data set [1] is BV-2. Nature of the data set: Cytotoxicity against mouse BV-2 cells assessed as cell viability up to 10 uM by MTT assay. In kind it is toxicity, cell-based. The following applies: bv-2, 10 µM. On the technique in general: Tetrazolium dyes change colour on reduction, which living cells bring about.
The subject of data set [2] is BV-2. Nature of the data set: Anti-inflammatory activity in mouse BV-2 cells assessed as reduction in LPS-induced NO production at 10 uM pretreated with LPS for 24 hrs followed by compound addition and measured after 24 hrs by Griess reagent based analysis. In kind it is functional, cell-based. (In general: Nitrite, measured by Griess reagent, commonly stands in for NO production.)

For data set [3], the system named is BV-2. Briefly: Anti-inflammatory activity in mouse BV-2 cells assessed as reduction in LPS-induced NO production pretreated with LPS for 24 hrs followed by compound addition and measured after 24 hrs by Griess reagent based analysis. It is filed as functional, cell-based. The following applies: dose 0.5-5 µM.
The subject of data set [4] is BV-2. Nature of the data set: Cytotoxicity against mouse BV-2 cells assessed as cell viability at 10 uM by MTT assay. It is filed as toxicity, cell-based. As to conditions: bv-2, 10 µM.
The subject of data set [5] is BV-2. Nature of the data set: Cytotoxicity against mouse BV-2 cells assessed as cell viability at 5 uM by MTT assay. In kind it is toxicity, cell-based. The following applies: bv-2, 5 µM.
The test system of data set [6] is BV-2. Briefly: Anti-inflammatory activity in mouse BV-2 cells assessed as reduction in LPS-induced NO production at 5 uM pretreated with LPS for 24 hrs followed by compound addition and measured after 24 hrs by Griess reagent based analysis. It is filed as functional, cell-based.

Activity calls are given as the source filed them. The calls are words filed in the database; no cut-off is given here.

Take `Clc1cc(Cl)cc(-c2c[nH]c3ncc(-c4cnn(C5CCNCC5)c4)cc23)c1`: the Activity result in data set [1] is reported as “Non-toxic”. The outcome in data set [2] was Active.

For the molecule `COc1cccc(-c2c[nH]c3ncc(-c4cnn(C5CCN(C)CC5)c4)cc23)c1`, the Activity entry in data set [3] was “Dose-dependent-effect”; in data set [4] it was “Toxic”; in data set [5], “Non-toxic”. For the same molecule, the result in data set [6] was Active.

On to `CN1CCC(n2cc(-c3cnc4[nH]cc(-c5cc(Cl)cc(Cl)c5)c4c3)cn2)CC1`, for which the Activity result in data set [1] is reported as “Non-toxic”. Moreover, in data set [2], the result was Active.

Consider `CN1CCC(n2cc(-c3cnc4[nH]cc(-c5cccc(F)c5)c4c3)cn2)CC1`, for which the Activity entry was “Dose-dependent-effect” in data set [3], “Toxic” in data set [4], “Non-toxic” in data set [5] and “Active; Compound Showed Most Pronounced Effect Compared With Other Tested Compounds” in data set [6].

Turning to `COc1cc(-c2c[nH]c3ncc(-c4cnn(C5CCN(C)CC5)c4)cc23)c(F)cc1C`, in data set [1], the Activity entry is listed as “Non-toxic”. In data set [2], the result was Active.

In the case of `Fc1cccc(-c2c[nH]c3ncc(-c4cnn(C5CCNCC5)c4)cc23)c1`, the Activity result in data set [3] was “Dose-dependent-effect”; in data set [4], “Toxic”; in data set [5] it was “Non-toxic”; in data set [6], “Active; Compound Showed Most Pronounced Effect Compared With Other Tested Compounds”.

`COc1cc(-c2c[nH]c3ncc(-c4cnn(C5CCNCC5)c4)cc23)c(F)cc1C`: the Activity entry in data set [1] is “Non-toxic”. For the same molecule, the result in data set [2] was Active.

For the molecule `COc1cccc(-c2c[nH]c3ncc(-c4cnn(C5CCNCC5)c4)cc23)c1`, the Activity entry is “Dose-dependent-effect” in data set [3], “Toxic” in data set [4] and “Non-toxic” in data set [5]. Moreover, the result in data set [6] was Active.

(Values after ChEMBL document CHEMBL6109177, “AI-Driven De Novo Design and Development of Nontoxic DYRK1A Inhibitors” (J Med Chem, 2025).)
